Tested on: 926638-142-R-J1-PDC complex spheroid viability
Test: Anticancer human tumor 926638-142-R-J1-PDC patient-derived endometrial carcinoma cell line growth inhibition [POLQ]
Conditions: for IC50: curve of first compound; for viability, T/C: stronger effect = lower value
Summary of the method: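 PDC + HUVEC + MSC complex spheroids; POLQ inhibitors ± partner drugs; top conc. at/near clinical Cmax, else 10 microM (SN-38 1 microM), half-log dilutions; 37 degrees C, 5% CO2.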
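Further: spheroids exposed to drugs for one week before readout.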
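Wherever viability, T/C is given: percent viability relative to DMSO vehicle control wells set as 100%.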

Question: How did the IC50 (second compound 0.0316 µM) turn out when `COc1cc(C2c3cc4c(cc3C(OC3OC5COC(C)OC5C(O)C3O)C3COC(=O)C23)OCO4)cc(OC)c1O` (configuration not stated) + Cc1cccc(N(C)C(=O)C2C(O)CCN2c2nc(C)cc(C(F)(F)F)c2C#N)c1 was run?
Answer: > 10 µM

Question: What about the IC50 (second compound 0.1 µM) of the same compound?
Answer: > 10 µM

Question: And the IC50 (second compound 0.316 µM)?
Answer: > 10 µM

Question: What about the IC50 (second compound 1 µM) of the same compound?
Answer: > 10 µM

Question: And the IC50 (second compound 3.16 µM)?
Answer: > 10 µM

Question: What about the IC50 (second compound 10 µM) of the same compound?
Answer: > 10 µM

Question: What about the viability, T/C (second compound 0.0316 µM, first compound 0.0316 µM) of the same compound?
Answer: 83.5%

Question: And the viability, T/C (second compound 0.0316 µM, first compound 0.1 µM)?
Answer: 62.5%

Question: And the viability, T/C (second compound 0.0316 µM, first compound 0.316 µM)?
Answer: 72%

Question: And the viability, T/C (second compound 0.0316 µM, first compound 1 µM)?
Answer: 73%

Question: What about the viability, T/C (second compound 0.0316 µM, first compound 3.16 µM) of the same compound?
Answer: 56%

Question: What about the viability, T/C (second compound 0.0316 µM, first compound 10 µM) of the same compound?
Answer: 60.1%

Question: And the viability, T/C (second compound 0.1 µM, first compound 0.0316 µM)?
Answer: 76.8%

Question: And the viability, T/C (second compound 0.1 µM, first compound 0.1 µM)?
Answer: 71.4%

Question: What about the viability, T/C (second compound 0.1 µM, first compound 0.316 µM) of the same compound?
Answer: 72.3%

Question: What about the viability, T/C (second compound 0.1 µM, first compound 1 µM) of the same compound?
Answer: 62.7%

Question: And the viability, T/C (second compound 0.1 µM, first compound 3.16 µM)?
Answer: 67.7%

Question: What about the viability, T/C (second compound 0.1 µM, first compound 10 µM) of the same compound?
Answer: 56%

Question: What about the viability, T/C (second compound 0.316 µM, first compound 0.0316 µM) of the same compound?
Answer: 95.5%

Question: What about the viability, T/C (second compound 0.316 µM, first compound 0.1 µM) of the same compound?
Answer: 84.1%

Question: What about the viability, T/C (second compound 0.316 µM, first compound 0.316 µM) of the same compound?
Answer: 77%

Question: And the viability, T/C (second compound 0.316 µM, first compound 1 µM)?
Answer: 57.6%

Question: And the viability, T/C (second compound 0.316 µM, first compound 3.16 µM)?
Answer: 63.9%

Question: What about the viability, T/C (second compound 0.316 µM, first compound 10 µM) of the same compound?
Answer: 49.1%

Question: What about the viability, T/C (second compound 1 µM, first compound 0.0316 µM) of the same compound?
Answer: 89.3%

Question: And the viability, T/C (second compound 1 µM, first compound 0.1 µM)?
Answer: 80.8%

Question: And the viability, T/C (second compound 1 µM, first compound 0.316 µM)?
Answer: 72.2%

Question: What about the viability, T/C (second compound 1 µM, first compound 1 µM) of the same compound?
Answer: 77.9%

Question: What about the viability, T/C (second compound 1 µM, first compound 3.16 µM) of the same compound?
Answer: 67.8%

Question: And the viability, T/C (second compound 1 µM, first compound 10 µM)?
Answer: 61.3%

Question: What about the viability, T/C (second compound 3.16 µM, first compound 0.0316 µM) of the same compound?
Answer: 75.8%

Question: And the viability, T/C (second compound 3.16 µM, first compound 0.1 µM)?
Answer: 71.8%

Question: What about the viability, T/C (second compound 3.16 µM, first compound 0.316 µM) of the same compound?
Answer: 69.9%

Question: And the viability, T/C (second compound 3.16 µM, first compound 1 µM)?
Answer: 79.3%

Question: And the viability, T/C (second compound 3.16 µM, first compound 3.16 µM)?
Answer: 62.7%

Question: What about the viability, T/C (second compound 3.16 µM, first compound 10 µM) of the same compound?
Answer: 50.2%

Question: And the viability, T/C (second compound 10 µM, first compound 0.0316 µM)?
Answer: 80.1%

Question: And the viability, T/C (second compound 10 µM, first compound 0.1 µM)?
Answer: 83.9%

Question: What about the viability, T/C (second compound 10 µM, first compound 0.316 µM) of the same compound?
Answer: 73.6%

Question: What about the viability, T/C (second compound 10 µM, first compound 1 µM) of the same compound?
Answer: 70.9%

Question: And the viability, T/C (second compound 10 µM, first compound 3.16 µM)?
Answer: 59%

Question: And the viability, T/C (second compound 10 µM, first compound 10 µM)?
Answer: 60.6%

Reference: PubChem BioAssay AID1963826 (Molecular Pharmacology Branch, DTP, NCI, 2024)
